Drawing on US8273754B2, “Substituted 1H-pyrazolo[3,4-D]pyrimidine-6-amine compounds” (ArQule, Inc., priority 2008, dated 2012), this text covers inhibition for 14 compounds.

Like-named read-outs stand apart in the source and are kept apart here.

For the assay, the system named is cancer cells. Nature of the assay: MTS cell growth inhibition assay (72 hours). The class given is cell-based. The gist of the method:
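Cells in DMEM with 1% FBS, seeded 18 h, then compound-treated 72 h at 37 °C. Viability by MTS/PMS for 4 h, formazan absorbance at 492 nm; IC50 taken as concentration giving 50% absorbance drop, activity banded by percent inhibition.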

[1] abbreviates: Homo sapiens, DLD-1, 72 h, DLD-1 cells, read-out: DLD-1 MTS 72 hr at 10 μM.
Where [2] appears, read: Homo sapiens, KATO III, 72 h, KATO III cells, read-out: KATO III MTS 72 hr at 10 μM.
Where [3] appears, read: Homo sapiens, MDA-MB-231, 72 h, MDA-MB-231 cells, read-out: MDA-MB-231 MTS 72 hr at 10 μM.
Setting [4] is: Homo sapiens, NCI-H1299, 72 h, NCI-H1299 cells, read-out: NCI-H1299 MTS 72 hr at 10 μM.
Where [5] appears, read: PaCa-2, 72 h, PACA-2 cells, read-out: PACA-2 MTS 72 hr at 10 μM.

`COc1ccc(Br)cc1CN1CC(Nc2nc(N)nc3[nH]ncc23)Cc2ccccc21` (stereo not shown) [Compound 144, N4-[1-(5-bromo-2-methoxybenzyl)-1,2,3,4-tetrahydroquinolin-3-yl]-1H-pyrazolo[3,4-d]pyrimidine-4,6-diamine]: the inhibition at 10 µM reads like this: under setting [1], greater than 79%; under setting [2], greater than 79%; under setting [3], greater than 79%; under setting [4], greater than 79%; under setting [5], greater than 79%.
In the case of `N#Cc1cccc(CN2CC(Nc3nc(N)nc4[nH]ncc34)Cc3ccccc32)c1` (stereo not shown) [Compound 145, 3-({3-[(6-amino-1H-pyrazolo[3,4-d]pyrimidin-4-yl)amino]-3,4-dihydroquinolin-1(2H)-yl}methyl)benzonitrile], the inhibition at 10 µM under setting [1] was greater than 79%; the inhibition at 10 µM under setting [2] was greater than 79%; the inhibition at 10 µM under setting [3] is greater than 79%; the inhibition at 10 µM under setting [4] is greater than 79%; the inhibition at 10 µM under setting [5] is greater than 79%.
For `COc1cc(CN2CC(Nc3nc(N)nc4[nH]ncc34)Cc3ccccc32)ccc1F` (stereo not shown) [Compound 146, N4-[1-(4-fluoro-3-methoxybenzyl)-1,2,3,4-tetrahydroquinolin-3-yl]-1H-pyrazolo[3,4-d]pyrimidine-4,6-diamine], the inhibition at 10 µM reads like this: under setting [1], greater than 79%; under setting [2], greater than 79%; under setting [3], greater than 79%; under setting [4], 50 to 79%; under setting [5], greater than 79%.
Turning to `CC1(C)CCc2cc(CN3CC(Nc4nc(N)nc5[nH]ncc45)Cc4ccccc43)ccc2O1` (stereo not shown) [Compound 147, N4-{1-[(2,2-dimethyl-3,4-dihydro-2H-chromen-6-yl)methyl]-1,2,3,4-tetrahydroquinolin-3-yl}-1H-pyrazolo[3,4-d]pyrimidine-4,6-diamine], the inhibition at 10 µM under setting [1] was greater than 79%; the inhibition at 10 µM under setting [2] is greater than 79%; the inhibition at 10 µM under setting [3] was 50 to 79%; the inhibition at 10 µM under setting [4] was less than 50%; the inhibition at 10 µM under setting [5] is greater than 79%.
Regarding `Cc1ccc(C)c(CN2CC(Nc3nc(N)nc4[nH]ncc34)Cc3ccccc32)c1` (stereo not shown) [Compound 148, N4-[1-(2,5-dimethylbenzyl)-1,2,3,4-tetrahydroquinolin-3-yl]-1H-pyrazolo[3,4-d]pyrimidine-4,6-diamine], the inhibition at 10 µM was greater than 79% under setting [1]; greater than 79% under setting [2]; 50 to 79% under setting [3]; 50 to 79% under setting [4]; greater than 79% under setting [5].
Take `Nc1nc(NC2Cc3ccccc3N(Cc3ccccc3Oc3ccccc3)C2)c2cn[nH]c2n1` (stereo not shown) [Compound 149, N4-[1-(2-phenoxybenzyl)-1,2,3,4-tetrahydroquinolin-3-yl]-1H-pyrazolo[3,4-d]pyrimidine-4,6-diamine]: the inhibition at 10 µM is greater than 79% under setting [1]; 50 to 79% under setting [2]; less than 50% under setting [3]; less than 50% under setting [4]; less than 50% under setting [5].
Regarding `Nc1nc(NC2Cc3ccccc3N(Cc3c(F)cccc3F)C2)c2cn[nH]c2n1` (stereo not shown) [Compound 150, N4-[1-(2,6-difluorobenzyl)-1,2,3,4-tetrahydroquinolin-3-yl]-1H-pyrazolo[3,4-d]pyrimidine-4,6-diamine], the inhibition at 10 µM runs as follows: under setting [1], greater than 79%; under setting [2], 50 to 79%; under setting [3], less than 50%; under setting [4], less than 50%; under setting [5], greater than 79%.
Take `Nc1nc(NC2Cc3ccccc3N(Cc3cn(-c4ccccc4)nc3-c3ccccc3)C2)c2cn[nH]c2n1` (stereo not shown) [Compound 151, N4-{1-[(1,3-diphenyl-1H-pyrazol-4-yl)methyl]-1,2,3,4-tetrahydroquinolin-3-yl}-1H-pyrazolo[3,4-d]pyrimidine-4,6-diamine]: the inhibition at 10 µM under setting [1] is greater than 79%; the inhibition at 10 µM under setting [2] was greater than 79%; the inhibition at 10 µM under setting [3] was less than 50%; the inhibition at 10 µM under setting [4] is less than 50%; the inhibition at 10 µM under setting [5] is greater than 79%.
`Nc1nc(NC2Cc3ccccc3N(Cc3ccccc3OCc3c(Cl)cccc3Cl)C2)c2cn[nH]c2n1` (stereo not shown) [Compound 152, N4-(1-{2-[(2,6-dichlorobenzyl)oxy]benzyl}-1,2,3,4-tetrahydroquinolin-3-yl)-1H-pyrazolo[3,4-d]pyrimidine-4,6-diamine]: the inhibition at 10 µM is, setting by setting: under setting [1], greater than 79%; under setting [2], 50 to 79%; under setting [3], 50 to 79%; under setting [4], less than 50%; under setting [5], less than 50%.
On to `COc1ccc(Oc2ccccc2CN2CC(Nc3nc(N)nc4[nH]ncc34)Cc3ccccc32)cc1` (stereo not shown) [Compound 153, N4-{1-[2-(4-methoxyphenoxy)benzyl]-1,2,3,4-tetrahydroquinolin-3-yl}-1H-pyrazolo[3,4-d]pyrimidine-4,6-diamine], for which the inhibition at 10 µM reads like this: under setting [1], 50 to 79%; under setting [2], 50 to 79%; under setting [3], less than 50%; under setting [4], less than 50%; under setting [5], less than 50%.
Consider `Nc1nc(NC2Cc3ccccc3N(Cc3cccc(Oc4cc(Cl)cc(Cl)c4)c3)C2)c2cn[nH]c2n1` (stereo not shown) [Compound 154, N4-{1-[3-(3,5-dichlorophenoxy)benzyl]-1,2,3,4-tetrahydroquinolin-3-yl}-1H-pyrazolo[3,4-d]pyrimidine-4,6-diamine], for which the inhibition at 10 µM under setting [1] was greater than 79%; the inhibition at 10 µM under setting [2] is greater than 79%; the inhibition at 10 µM under setting [3] fell in the range of 50 to 79%; the inhibition at 10 µM under setting [4] lay in the range of 50 to 79%; the inhibition at 10 µM under setting [5] lay in the range of 50 to 79%.
For `Nc1nc(NC2Cc3ccccc3N(Cc3ccc(OCc4ccccc4)cc3)C2)c2cn[nH]c2n1` (stereo not shown) [Compound 155, N4-{1-[4-(benzyloxy)benzyl]-1,2,3,4-tetrahydroquinolin-3-yl}-1H-pyrazolo[3,4-d]pyrimidine-4,6-diamine], the inhibition at 10 µM by setting is: under setting [1], greater than 79%; under setting [2], greater than 79%; under setting [3], greater than 79%; under setting [4], greater than 79%; under setting [5], greater than 79%.
For `COc1cc(CN2CC(Nc3nc(N)nc4[nH]ncc34)Cc3ccccc32)ccc1OCc1ccccc1` (stereo not shown) [Compound 156, N4-{1-[4-(benzyloxy)-3-methoxybenzyl]-1,2,3,4-tetrahydroquinolin-3-yl}-1H-pyrazolo[3,4-d]pyrimidine-4,6-diamine], the inhibition at 10 µM is, setting by setting: under setting [1], 50 to 79%; under setting [2], less than 50%; under setting [3], less than 50%; under setting [4], less than 50%; under setting [5], less than 50%.
Consider `COc1ccc(-n2ncc(CN3CC(Nc4nc(N)nc5[nH]ncc45)Cc4ccccc43)c2C)cc1` (stereo not shown) [Compound 157, N4-(1-{[1-(4-methoxyphenyl)-5-methyl-1H-pyrazol-4-yl]methyl}-1,2,3,4-tetrahydroquinolin-3-yl)-1H-pyrazolo[3,4-d]pyrimidine-4,6-diamine], for which the inhibition at 10 µM reads like this: under setting [1], less than 50%; under setting [2], 50 to 79%; under setting [3], less than 50%; under setting [4], less than 50%; under setting [5], less than 50%.
